Measurements: ChEMBL document CHEMBL4004877, “Synthesis and biological evaluation of chalcone, dihydrochalcone, and 1,3-diarylpropane analogs as anti-inflammatory agents” (Bioorg Med Chem Lett, 2017)
≈ marks a conversion by molar mass, not a printed value.

Columns and labels:
[1] = Cytotoxicity against LPS-stimulated mouse RAW264.7 cells assessed as cell viability at 10 ug/ml after 24 hrs by MTT assay relative to control; type: cell-based; settings: LPS-stimulated RAW264.7 cells, read-out: Activity
RAW264.7 [2] = assay: Antiinflammatory activity in mouse RAW264.7 cells assessed as inhibition of LPS induced iNOS-dependent nitric oxide production at 2.5 ug/ml after 24 hrs by Griess assay relative to control; type: functional; settings: RAW264.7, 24 h
[3] = Cytotoxicity against LPS-stimulated mouse RAW264.7 cells assessed as cell viability at 5 ug/ml after 24 hrs by MTT assay relative to control; type: cell-based; settings: LPS-stimulated RAW264.7 cells, read-out: Activity
RAW264.7 [4] = assay: Antiinflammatory activity in mouse RAW264.7 cells assessed as inhibition of LPS induced iNOS-dependent nitric oxide production at 10 ug/ml after 24 hrs by Griess assay relative to control; type: functional; settings: RAW264.7, 24 h
RAW264.7 [5] = assay: Antiinflammatory activity in mouse RAW264.7 cells assessed as inhibition of LPS induced iNOS-dependent nitric oxide production after 24 hrs by Griess assay; type: functional, cell-based; settings: RAW264.7, 24 h
RAW264.7 [6] = assay: Antiinflammatory activity in mouse RAW264.7 cells assessed as inhibition of LPS induced iNOS-dependent nitric oxide production at 1.25 ug/ml after 24 hrs by Griess assay relative to control; type: functional; settings: RAW264.7, 24 h
[7] = Cytotoxicity against LPS-stimulated mouse RAW264.7 cells assessed as cell viability at 1.25 ug/ml after 24 hrs by MTT assay relative to control; type: cell-based; settings: LPS-stimulated RAW264.7 cells, read-out: Activity
RAW264.7 [8] = assay: Antiinflammatory activity in mouse RAW264.7 cells assessed as inhibition of LPS induced iNOS-dependent nitric oxide production at 5 ug/ml after 24 hrs by Griess assay relative to control; type: functional; settings: RAW264.7, 24 h
[9] = Cytotoxicity against LPS-stimulated mouse RAW264.7 cells assessed as cell viability at 2.5 ug/ml after 24 hrs by MTT assay relative to control; type: cell-based; settings: LPS-stimulated RAW264.7 cells, read-out: Activity

Row | IC50 (RAW264.7 [5]) | SMILES | viability at 24 h, 10 ug/ml [1] | inhibition at 2.5 µg/mL (RAW264.7 [2]) | viability at 24 h, 5 ug/ml [3] | inhibition at 10 µg/mL (RAW264.7 [4]) | inhibition at 1.25 µg/mL (RAW264.7 [6]) | viability at 24 h, 1.25 ug/ml [7] | inhibition at 5 µg/mL (RAW264.7 [8]) | viability at 24 h, 2.5 ug/ml [9]
1 | > 10 µg/mL | COc1ccc(CCC(=O)c2ccc(OC)c(OC)c2)cc1O | 83.9% | 6.3% | 91.8% | 31% | 2.9% | 95.6% | 17.3% | 92.1%
2 | 7.86 µg/mL (≈ 24.8 µM) | COc1ccc(C(=O)CCc2ccc(OC)c(OC)c2)c(O)c1 | 67.5% | 23.9% | 75.2% | 56.2% | 18.4% | 91.8% | 38.3% | 89%
3 | 8.38 µg/mL (≈ 29.5 µM) | COc1ccc(/C=C/C(=O)c2cccc(O)c2)cc1OC | 63.9% | 3.3% | 83.8% | 65.9% | 1.7% | 101% | 3.5% | 91%
4 | > 10 µg/mL | COc1ccc(C(=O)CCc2cccc(OC)c2OC)c(O)c1 | 92.8% | 2.8% | 92.7% | 18.6% | 0.8% | 96.6% | 5.4% | 95.2%
5 | > 10 µg/mL | COc1cc(C(=O)CCc2cccc(OC)c2OC)ccc1O | 90.5% | 4.4% | 91.1% | 33.3% | 0.1% | 94.1% | 15.9% | 94.5%
6 | > 10 µg/mL | COc1cccc(CCC(=O)c2cccc(O)c2)c1OC | 91.4% | 14.1% | 93.4% | 47.5% | 7.5% | 96.4% | 25% | 94%
7 | > 10 µg/mL | COc1ccc(/C=C/C(=O)c2ccc(OC)c(OC)c2)cc1O | 73.5% | 1.8% | 73% | 9.8% | 1.1% | 91.4% | 2.6% | 82.1%
8 | > 10 µg/mL | COc1ccc(C(=O)CCc2ccc(OC)c(OC)c2OC)c(O)c1 | 94% | 2.8% | 94.8% | 10.3% | 0.9% | 101% | 7.5% | 94.4%
9 | 2.35 µg/mL (≈ 7.48 µM) | COc1ccc(C(=O)/C=C/c2cccc(OC)c2OC)c(O)c1 | 60.3% | 54.7% | 69.7% | 59.7% | 1.3% | 94.2% | 55.3% | 72.9%
10 | > 10 µg/mL | COc1ccc(C(=O)CCc2ccc(OC)cc2OC)c(O)c1 | 83.4% | 3.4% | 87.4% | 21.6% | 3% | 97.8% | 9% | 96.2%
11 | > 10 µg/mL | COc1ccc(CCC(=O)c2ccc(OC)c(OC)c2)cc1OC | 95.3% | 8.2% | 96.2% | 31.1% | 5.9% | 99.6% | 13.8% | 98%
12 | > 10 µg/mL | COc1cc(C(=O)/C=C/c2cccc(OC)c2OC)ccc1O | 63.7% | 3.1% | 67.8% | 46.2% | 3.9% | 97.5% | 3.2% | 94%

The remaining lines, values behind:

Row | SMILES | IC50 (RAW264.7 [5]) | viability at 24 h, 10 ug/ml [1] | inhibition at 2.5 µg/mL (RAW264.7 [2]) | viability at 24 h, 5 ug/ml [3] | inhibition at 10 µg/mL (RAW264.7 [4]) | inhibition at 1.25 µg/mL (RAW264.7 [6]) | viability at 24 h, 1.25 ug/ml [7] | inhibition at 5 µg/mL (RAW264.7 [8]) | viability at 24 h, 2.5 ug/ml [9]
13 | COc1cccc(CCCc2cccc(O)c2)c1OC | 8.09 µg/mL (≈ 29.7 µM) | 69.6% | 18.4% | 96.1% | 63.9% | 16.3% | 97.1% | 18.3% | 97.4%
14 | COc1ccc(CCCc2ccc(OC)c(OC)c2)cc1OC | 9.47 µg/mL (≈ 29.9 µM) | 94.9% | 12.7% | 95.6% | 52% | 8.4% | 99% | 26.1% | 97.4%
15 | COc1ccc(CCCc2cccc(O)c2)c(OC)c1 | 6.92 µg/mL (≈ 25.4 µM) | 67.9% | 18% | 95.9% | 78.8% | 16.2% | 98.5% | 24.6% | 97%
16 | O=C(CCc1ccc2c(c1)OCO2)c1ccc(O)cc1 | 8.72 µg/mL (≈ 32.3 µM) | 82.9% | 19.8% | 87.3% | 56.2% | 2% | 95.1% | 24.8% | 89%
17 | COc1ccc(CCCc2ccc(OC)cc2O)cc1 | 6.37 µg/mL (≈ 23.4 µM) | 73.8% | 30.5% | 94.6% | 72.5% | 25.7% | 98.9% | 37.8% | 96.8%
18 | COc1ccc(CCCc2ccc(OC)c(OC)c2)cc1O | 3.92 µg/mL (≈ 13 µM) | 51.9% | 36.3% | 86.2% | 83.6% | 32.4% | 98% | 57.4% | 95.5%
19 | COc1ccc(C(=O)CCc2ccc3c(c2)OCO3)c(OC)c1 | > 10 µg/mL | 81% | 4.5% | 83.2% | 9.8% | 0.2% | 87.4% | 6.6% | 87.2%
20 | COc1ccc(CCCc2ccc(OC)cc2OC)c(O)c1 | 6.71 µg/mL (≈ 22.2 µM) | 25.8% | 26.9% | 91.5% | 70% | 10.4% | 100% | 35.2% | 97.7%
21 | COc1ccc(/C=C/C(=O)c2cccc(O)c2)cc1 |  | 41.2% | 2.1% | 63.3% |  | 9.4% | 99% |  | 99.1%
